# Where no end group is shown, it is not given here.
# Experiments:
# thrombin [1] = conditions: cited from earlier work; for inhibition of thrombin activity: at a concentration of 0.4 mg mL^−1, purified from Alcalase 2.4L hydrolysate of peanut protein
# Excerpt: In addition, three peptides SWAQL, GNHEAGE and CFNEYE were purified from the A ...
# thrombin [2] = target: T1, thrombin (Bos taurus, UniProt P00735); assay: in vitro antithrombotic activity (thrombin-induced fibrinogen clotting, absorbance at 405 nm); assay type: biochemical, Bovine
# T1 construct: thrombin consists of a 36-residue light chain and a 259-residue heavy chain; purchased Sigma-Aldrich Co. (St. Louis, MO, USA)
# Procedure: Antithrombotic activity was determined according to the method of Yang et al.[53] The samples of thrombin and fibrinogen were dissolved in 0.05 M pH 7.4 Tris–HCl buffer, respectively. The determination was carried out using the IMark plate reader (Uji-shi, Kyoto, Japan) at 405 nm. 140 μL of 1 mg mL^−1 fibrinogen and 40 μL of the sample were added to the microplate, then mixed and the absorbance was recorded as Sb. After, 10 μL of thrombin (12 IU mL^−1) was added to the mixture which was maintained at 37 °C for 10 min, and the absorbance was recorded as S. 40 μL of buffer instead of the sample was used for control group, and the absorbances were Cb and C, respectively. The antithrombotic activity was calculated from eqn (5) as follows:5 [drawing 4]
# thrombin [3] = target: T1, thrombin; assay: fluorescence quenching of thrombin by P10 (Stern-Volmer, binding constant, thermodynamics); set-up: species or system Bovine; conditions: 310 K, log (F0 − F)/F against log [Q]
# Excerpt: The Stern–Volmer plot at 290 K and 310 K was plotted to determine the quenching mechanism (static quenching or dynamic quenching), as shown in Fig. 2B. F0 and F represented the fluorescence intensity of thrombin in the absence and presence of P10, respectively. And [Q] represented the concentration of the quencher. In general, the stability and quenching constants of the compounds formed under the static quenching mechanism decrease with increasing temperature. The interaction under dynamic quenching increases the number of effective collisions and enhances energy transfer, thus increasing the quenching constant of the fluorescent material as the temperature increases.[26,30]
# To confirm this conclusion, the fluorescence quenching data was further analyzed by the Stern–Volmer eqn (1).[31] Where Ksv represented the quenching constant of the Stern–Volmer.1 [drawing 1]
# The binding constant (Kb) and the number of binding sites (n) can be obtained from eqn (2) when small molecules are independently bound to a set of equivalent sites on the macromolecule:[33]2 [drawing 2] […]
# The fluorescence spectra were recorded on the Hitachi F-4500 fluorescence spectrophotometer (Hitachi, Japan). […] The fluorescence emission spectrum of the mixture from 290 nm to 420 nm was scanned, and the excitation wavelength was set to 280 nm. […]
substance,measurement,setting,value
CFNEYE [peptide purified from the Alcalase 2.4L hydrolysate of peanut protein],inhibition of thrombin activity,thrombin [1],complete inhibition
GNHEAGE [peptide purified from the Alcalase 2.4L hydrolysate of peanut protein],inhibition of thrombin activity,thrombin [1],complete inhibition
SWAQL [peptide purified from the Alcalase 2.4L hydrolysate of peanut protein],inhibition of thrombin activity,thrombin [1],complete inhibition
"AGFAGDDAPR [P10, AGFAGDDAPR]",IC50,thrombin [2],164 µM
same,Binding constant Kb,thrombin [3],174 M⁻¹
KNAENELGEVTVR,antithrombotic activity,thrombin [1]; at a concentration of 1 mg mL^−1,67.21%
VEPVTVNPHE [anticoagulant peptide purified from Buthus martensii Karsch],"IC50, inhibition of thrombin activity",thrombin [1]; peptide purified from Buthus martensii Karsch,12 µg/mL
